Source: patent US8592443B2, “Use of 4 cyclopropylmethoxy-N-(3,5 dichloro-1 oxido-pyridin-4 yl)-5-(methoxy)pyridine-2-carboxamide for the treatment of spinal cord traumas” (Sanofi, priority 2007, dated 2013)

Assays:
[1] = tested on: ferret; assay: Evaluation of emetic effects in the ferret; format: in vivo; conditions: observed up to 6 hours after administration; for Emetic effects (vomiting): ferrets
Protocol: The emetic capacity of 4-cyclopropylmethoxy-N-(3,5-dichloro-1-oxidopyridin-4-yl)-5-(methoxy)pyridine-2-carboxamide was evaluated in the ferret. Two groups of ferrets were used, the first being given the carrier (PEG 200) and the second being given 4-cyclopropyl-methoxy-N-(3,5-dichloro-1-oxidopyridin-4-yl)-5-(methoxy)pyridine-2-carboxamide in solution in the carrier (PEG 200), by oral gavage, at doses of 0.05 mg/kg and 0.1 mg/kg. The animals were observed continually for the 2 hours following administration and then every hour up to 6 hours after administration. The clinical signs (in particular retching and vomiting) were noted.
The emetic capacity of […] was evaluated in the ferret. Two groups of ferrets were used, the first receiving the carrier (PEG200) and the second receiving […] in solution in the carrier (PEG200), by oral gavage, at doses of 0.05 mg/kg and 0.1 mg/kg. The animals were observed continually for the 2 hours following administration and then every hour up to 6 hours after administration. The clinical signs were noted.

[2] = tested on: model of spinal trauma in the mouse; assay: Beam balance test in a model of spinal trauma in the mouse; format: in vivo; conditions: for Travel time (% motor function deficiency): 0.03 mg/kg po at +4 h and +6 h then daily; for Travel time (% motor function deficiency) / Travel time (% deficiency): 100% = trauma + carrier; for Travel time (% deficiency): 0.01 mg/kg po at +4 h then daily; for Balance beam test result (time to reach the opposite end of the beam): 0.01 mg/kg orally 4 h after lesion then daily, OF1 mice
Protocol: The effects of 4-cyclopropylmethoxy-N-(3,5-dichloro-1-oxidopyridin-4-yl)-5-(methoxy)pyridine-2-carboxamide used according to the invention were evaluated in a model of spinal trauma in the mouse using the beam balance test (P. Barnéoud, NeuroReport 1997, 8, 2861-2865).
The Beam Balance test consists in placing the mouse at the end of a horizontal beam 30 cm long and 1.5 cm wide, raised 20 cm above the ground. The time required for the mouse to reach the opposite end of the beam is measured. The test is stopped after 12 seconds.
[…] female OF1 mice (Iffa Credo Lyon, France) weighing 12 to 14 g are placed in experimental cages (32×21×14 cm) provided with an endless supply of food and water, at the controlled temperature of 22±1° C.
The mice are subjected to a pre-learning phase which allows them to become familiar with the evaluation test and allows them to reach an optimal and identical level of performance.
The animals are subsequently divided up into three groups, and then a trauma is induced in a controlled manner in two of the three groups of mice before the beginning of the test phase.
This trauma consists of a lesion of the spinal cord located at the level of the thoracic vertebra Th8. The lesion is generated by 3 successive cycles of freezing-thawing by applying liquid nitrogen.
The functional consequences of the trauma are then measured at days 2, 7, 14 and 21 and also at day 28.
The following groups were formed: • Group 1 (no trauma) is composed of control animals which are not subjected to any trauma. • Group 2 (trauma alone) is composed of traumatized animals to which one dose per day of carrier (methyl-cellulose (MC) (0.6%) +tween-80 (0.5%) in water) is administered. • Group 3 (trauma+active ingredient 0.01 mg/kg at +4 hours) receives a solution containing 4-cyclopropylmethoxy-N-(3,5-dichloro-1-oxidopyridin-4-yl)-5-(methoxy)pyridine-2-carboxamide (0.01 mg/kg) in the carrier (MC (0.6%)+tween-80 (0.5%) in water), orally, 4 hours after the lesion, and then daily, orally, for 4 weeks after the trauma.
An experiment similar to that of Example 1 was carried out by administering ((4R)-4-[3-(cyclopentyloxy)-4-methoxyphenyl]pyrrolidine-2-one) to 34-week-old OF1 mice (Charles River, France) weighing 12 to 14 g, in the treatment of spinal cord traumas.
The mice were tested in the beam balance test, according to operating conditions identical to those described above.
The following groups were formed: • Group A (no trauma) is composed of control animals which are not subjected to any trauma. • Group B (trauma alone) is composed of traumatized animals to which one dose per day of carrier (2% PEG 200) is administered. • Group C (trauma+active ingredient 0.03 mg/kg at +4 hours) receives a solution containing (R)-(−)-Rolipram (0.03 mg/kg) in the carrier (2% PEG 200), orally, 4 hours and 6 hours after the lesion, and then daily, orally, for 4 weeks after the trauma.
The results obtained for each group of mice are expressed as percentage (%) deficiency of motor functions in the traumatized mice compared with the non-traumatized mice:
To do this, the difference in time taken between the group of mice tested to which (R)-(−)-Rolipram was administered (group C) and the group of non-traumatized mice (group A) is measured and expressed as a percentage relative to the difference in time taken between the traumatized mice to which one dose per day of carrier was administered (group B) and the time taken by the non-traumatized mice (group A). This ratio therefore gives the percentage deficiency in motor functions of the traumatized mice compared with the non-traumatized mice.
This calculation of the percentage deficiency of the mice tested is performed according to the following formula: % deficiency of group (c)=[(mean of the travel time of group C)−(mean of the travel time of group A)]/[(mean of the travel time of group B)−(mean of the travel time of group A)]

COc1ccc([C@@H]2CNC(=O)C2)cc1OC1CCCC1 [(R)-(−)-Rolipram, ((4R)-4-[3-(cyclopentyloxy)-4-methoxyphenyl]pyrrolidine-2-one), reference compound]
Emetic effects (vomiting) ([1]; 0.05 mg/kg by oral gavage in PEG200): induces vomiting | Emetic effects (vomiting) ([1]; 0.1 mg/kg by oral gavage in PEG200): induces vomiting | Travel time (% motor function deficiency) ([2]; D + 2, 0% = no trauma): 110% | Travel time (% motor function deficiency) ([2]; D + 7, 0% = no trauma): 67% | Travel time (% motor function deficiency) ([2]; D + 14, 0% = no trauma): 48% | Travel time (% motor function deficiency) ([2]; D + 21, 0% = no trauma): 122% | Travel time (% motor function deficiency) ([2]; D + 28, 0% = no trauma): 108% | Travel time (% motor function deficiency) ([2]; Mean of D + 2 to D + 28): 91%

COc1cnc(C(=O)Nc2c(Cl)c[n+]([O-])cc2Cl)cc1OCC1CC1 [4-cyclopropylmethoxy-N-(3,5-dichloro-1-oxidopyridin-4-yl)-5-(methoxy)pyridine-2-carboxamide]
Emetic effects (retching and vomiting) ([1]; 0.1 mg/kg by oral gavage in PEG 200, 5 ferrets): no retching or vomiting | Degree of motor function deficiency compared with (R)-(−)-Rolipram ([2]; 0.01 mg/kg po versus (R)-(−)-Rolipram 0.03 mg/kg po, traumatized mice): less than that of the animals treated with (R)-(−)-Rolipram | Travel time (% deficiency) ([2]; D + 2, 0% = no trauma): 84% | Balance beam test result (time to reach the opposite end of the beam) ([2]; D + 2 after trauma, test stopped after 12 seconds): 10.71 s | Travel time (% deficiency) ([2]; D + 7, 0% = no trauma): 72% | Balance beam test result (time to reach the opposite end of the beam) ([2]; D + 7 after trauma): 8.67 s | Travel time (% deficiency) ([2]; D + 14, 0% = no trauma): 49% | Balance beam test result (time to reach the opposite end of the beam) ([2]; D + 14 after trauma): 6.35 s | Travel time (% deficiency) ([2]; D + 21, 0% = no trauma): 60% | Balance beam test result (time to reach the opposite end of the beam) ([2]; D + 21 after trauma): 6.17 s | Travel time (% deficiency) ([2]; D + 28, 0% = no trauma): 44% | Balance beam test result (time to reach the opposite end of the beam) ([2]; D + 28 after trauma): 5.18 s | Travel time (% deficiency) ([2]; Mean of D + 2 to D + 28): 62% | Re-establishment of motor functions versus non-treated traumatized animals ([2]; traumatized mice, curative administration (group 3 vs group 2)): better re-establishment in terms of motor functions
